Source: ChEMBL document CHEMBL1130306, “Asymmetric synthesis of a conformationally constrained N-phosphonoalkyl dipeptide” (Bioorg Med Chem Lett, 1997)
Activity calls are given as the source filed them.

Legend:
[1] = target: T1, Interstitial collagenase (Homo sapiens) (UniProt P03956); test: Inhibition of human recombinant fibroblast collagenase (MMP-1) at 10e-4 M (No significant activity)
T1 sequence (whole entry): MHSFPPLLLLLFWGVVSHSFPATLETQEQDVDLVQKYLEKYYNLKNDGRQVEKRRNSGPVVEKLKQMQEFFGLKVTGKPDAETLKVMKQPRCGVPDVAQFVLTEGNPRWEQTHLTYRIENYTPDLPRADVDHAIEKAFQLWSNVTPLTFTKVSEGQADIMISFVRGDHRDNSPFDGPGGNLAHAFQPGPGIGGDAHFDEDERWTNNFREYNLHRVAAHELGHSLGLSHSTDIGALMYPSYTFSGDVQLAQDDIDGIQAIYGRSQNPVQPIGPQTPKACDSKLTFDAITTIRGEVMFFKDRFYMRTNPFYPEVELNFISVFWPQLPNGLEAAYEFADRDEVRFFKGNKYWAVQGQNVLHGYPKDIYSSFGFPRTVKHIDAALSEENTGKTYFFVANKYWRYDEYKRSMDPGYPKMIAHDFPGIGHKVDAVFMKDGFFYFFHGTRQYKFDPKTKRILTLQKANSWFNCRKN

[2] = target: 72 kDa type IV collagenase (Homo sapiens) (UniProt P08253); test: Inhibition of human recombinant gelatinase-A (MMP-2) at 10e-4 M (No significant activity)
72 kDa type IV collagenase (Homo sapiens), sequence (P08253 110-660 limits assumed): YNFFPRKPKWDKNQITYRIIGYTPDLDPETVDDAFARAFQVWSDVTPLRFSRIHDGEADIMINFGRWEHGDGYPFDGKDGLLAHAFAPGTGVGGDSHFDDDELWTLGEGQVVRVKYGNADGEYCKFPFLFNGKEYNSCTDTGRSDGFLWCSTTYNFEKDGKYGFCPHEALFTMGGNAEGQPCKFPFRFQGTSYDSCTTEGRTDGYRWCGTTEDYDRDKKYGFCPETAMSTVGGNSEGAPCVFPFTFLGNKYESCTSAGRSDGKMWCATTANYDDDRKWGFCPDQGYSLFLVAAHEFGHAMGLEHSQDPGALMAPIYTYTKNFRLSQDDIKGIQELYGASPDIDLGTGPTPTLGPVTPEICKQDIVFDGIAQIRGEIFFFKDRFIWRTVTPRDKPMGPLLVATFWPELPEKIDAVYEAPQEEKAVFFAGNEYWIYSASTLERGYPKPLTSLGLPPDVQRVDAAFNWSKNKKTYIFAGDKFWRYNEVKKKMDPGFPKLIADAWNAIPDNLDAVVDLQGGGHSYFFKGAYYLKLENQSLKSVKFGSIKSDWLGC

[3] = target: Matrix metalloproteinase-9 (Homo sapiens) (UniProt P14780); test: Inhibition of human recombinant Matrix metalloprotease-9 at 10e-4 M (No significant activity)
Matrix metalloproteinase-9 (Homo sapiens), sequence (P14780 whole entry): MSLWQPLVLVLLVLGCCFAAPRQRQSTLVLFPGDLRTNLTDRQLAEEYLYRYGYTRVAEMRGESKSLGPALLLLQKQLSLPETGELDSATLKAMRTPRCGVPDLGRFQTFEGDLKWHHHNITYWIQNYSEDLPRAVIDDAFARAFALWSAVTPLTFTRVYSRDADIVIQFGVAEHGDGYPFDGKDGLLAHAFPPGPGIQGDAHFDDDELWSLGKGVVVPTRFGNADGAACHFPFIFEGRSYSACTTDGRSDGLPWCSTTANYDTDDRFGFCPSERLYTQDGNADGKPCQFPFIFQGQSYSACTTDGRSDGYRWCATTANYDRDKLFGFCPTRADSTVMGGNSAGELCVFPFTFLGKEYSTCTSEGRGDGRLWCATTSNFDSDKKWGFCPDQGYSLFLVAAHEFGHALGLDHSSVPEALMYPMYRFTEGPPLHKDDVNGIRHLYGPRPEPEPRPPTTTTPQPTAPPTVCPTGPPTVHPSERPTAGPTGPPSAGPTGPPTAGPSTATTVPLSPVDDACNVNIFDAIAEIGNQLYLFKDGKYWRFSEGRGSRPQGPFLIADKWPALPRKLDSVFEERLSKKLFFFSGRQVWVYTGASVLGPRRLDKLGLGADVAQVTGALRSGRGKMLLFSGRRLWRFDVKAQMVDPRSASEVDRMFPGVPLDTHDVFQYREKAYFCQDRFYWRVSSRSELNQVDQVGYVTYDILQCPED

Measured: Activity

CNC(=O)[C@H](Cc1c[nH]c2ccccc12)NC(=O)[C@H]1CCC[C@@H](P(=O)(O)O)N1
inactive: [1] | [2] | [3]

CNC(=O)[C@H](Cc1c[nH]c2ccccc12)NC(=O)[C@@H]1CCC[C@@H](P(=O)(O)O)N1
inactive: [1] | [2] | [3]
